Values of other authors as cited in patent publication US11602507B2, “Extended release oral composition of memantine or its salt and its process for the preparation” (TRIKONA PHARMACEUTICALS PVT. LTD, priority 2019, dated 2023).

solubility in water: highly soluble in water
SMILES: CC12CC3CC(C)(C1)CC(N)(C3)C2 [Memantine, 1-amino-3,5-dimethyladamantane]
